Experimental data taken from ChEMBL document CHEMBL5625224, “Identification of [1,2,4]Triazolo[4,3-a]pyrazine PARP1 inhibitors with overcome acquired resistance activities” (Eur J Med Chem, 2023).
Activity calls are given as the source filed them. No cut-off for these calls is given here.

Columns and labels:
[1] = Antiproliferative activity against human Talazoparib-resistant CAPAN-1 cells assessed as inhibition of cell growth incubated for 7 days by CCK-8 assay; type: functional, cell-based; conditions: CAPAN-1, 168 h
CAPAN-1 [2] = experiment: Induction of DNA double strand breaks in human CAPAN-1 cells assessed as increase in RPA32 phosphorylation at 0.1 to 1 uM incubated for 24 hrs by Western blot analysis; type: functional, cell-based; conditions: dose 0.1-1 µM
CAPAN-1 [3] = experiment: Induction of DNA double strand breaks in human CAPAN-1 cells assessed as gamma-H2AX foci formation at 0.1 to 1 uM incubated for 24 hrs by DAPI staining based confocal microscopic analysis; type: functional, cell-based; conditions: dose 0.1-1 µM
[4] = system: Olaparib-resistant CAPAN-1; experiment: Antiproliferative activity against human Olaparib-resistant CAPAN-1 cells assessed as inhibition of cell growth incubated for 7 days by CCK-8 assay; type: functional, cell-based; conditions: Olaparib-resistant CAPAN-1, 168 h
[5] = system: Olaparib-resistant CAPAN-1; experiment: Induction of apoptosis in human Olaparib-resistant CAPAN-1 cells assessed as late apoptotic cells at 0.1 uM incubated for 48 hrs by Annexin-V/PI staining based flow cytometry analysis (reference value: 3.67%); type: functional
CAPAN-1 [6] = experiment: Induction of apoptosis in human CAPAN-1 cells assessed as late apoptotic cells at 0.5 uM incubated for 48 hrs by Annexin-V/PI staining based flow cytometry analysis (reference value: 4.95%); type: functional
[7] = system: Olaparib-resistant CAPAN-1; experiment: Induction of DNA double strand breaks in Olaparib-resistant human CAPAN-1 cells assessed as increase in p-ATM foci formation at 0.1 to 1 uM incubated for 24 hrs by DAPI staining based confocal microscopic analysis; type: functional, cell-based; conditions: dose 0.1-1 µM
CAPAN-1 [8] = experiment: Induction of DNA double strand breaks in human CAPAN-1 cells assessed as increase in Chk1 phosphorylation at 0.1 to 1 uM incubated for 24 hrs by Western blot analysis; type: functional, cell-based; conditions: dose 0.1-1 µM
CAPAN-1 [9] = experiment: Induction of apoptosis in human CAPAN-1 cells assessed as early apoptotic cells at 0.5 uM incubated for 48 hrs by Annexin-V/PI staining based flow cytometry analysis (reference value: 10.1%); type: functional
CAPAN-1 [10] = experiment: Induction of cell cycle arrest in human CAPAN-1 cells assessed as accumulation of cell at G2/M phase at 0.1 uM incubated for 24 hrs by […] staining based flow cytometry analysis; type: functional
[11] = system: Olaparib-resistant CAPAN-1; experiment: Induction of apoptosis in human Olaparib-resistant CAPAN-1 cells assessed as late apoptotic cells at 1 uM incubated for 48 hrs by Annexin-V/PI staining based flow cytometry analysis (reference value: 3.67%); type: functional
CAPAN-1 [12] = experiment: Antiproliferative activity against human CAPAN-1 BRCA2-/- cells assessed as inhibition of cell growth incubated for 7 days by CCK-8 assay; type: functional, cell-based; conditions: CAPAN-1, 168 h
CAPAN-1 [13] = experiment: Induction of DNA double strand breaks in human CAPAN-1 cells assessed as increase in p-ATM foci formation at 0.1 to 1 uM incubated for 24 hrs by DAPI staining based confocal microscopic analysis; type: functional, cell-based; conditions: dose 0.1-1 µM
CAPAN-1 [14] = experiment: Induction of cell cycle arrest in human CAPAN-1 cells assessed as accumulation of cell at S phase at 0.5 to 1 uM incubated for 24 hrs by […] staining based flow cytometry analysis; type: functional; conditions: dose 0.5-1 µM
MDA-MB-436 = experiment: Antiproliferative activity against human MDA-MB-436 BRCA1-/- cells assessed as inhibition of cell growth incubated for 7 days by CCK-8 assay; type: functional, cell-based; conditions: MDA-MB-436, 168 h
[15] = Antiproliferative activity against human Simmiparib-resistant CAPAN-1 cells assessed as inhibition of cell growth incubated for 7 days by CCK-8 assay; type: functional, cell-based; conditions: CAPAN-1, 168 h
CAPAN-1 [16] = experiment: Induction of apoptosis in human CAPAN-1 cells assessed as late apoptotic cells at 1 uM incubated for 48 hrs by Annexin-V/PI staining based flow cytometry analysis (reference value: 4.95%); type: functional
[17] = system: Olaparib-resistant CAPAN-1; experiment: Induction of apoptosis in human Olaparib-resistant CAPAN-1 cells assessed as early apoptotic cells at 0.5 uM incubated for 48 hrs by Annexin-V/PI staining based flow cytometry analysis (reference value: 8.50%); type: functional
CAPAN-1 [18] = experiment: Induction of apoptosis in human CAPAN-1 cells assessed as early apoptotic cells at 1 uM incubated for 48 hrs by Annexin-V/PI staining based flow cytometry analysis (reference value: 10.1%); type: functional
[19] = molecular target: Voltage-gated inwardly rectifying potassium channel KCNH2 (Homo sapiens, UniProt Q12809); experiment: Inhibition of hERG; type: toxicity
[20] = system: Olaparib-resistant CAPAN-1; experiment: Induction of apoptosis in human Olaparib-resistant CAPAN-1 cells assessed as late apoptotic cells at 0.5 uM incubated for 48 hrs by Annexin-V/PI staining based flow cytometry analysis (reference value: 3.67%); type: functional
[21] = system: Olaparib-resistant CAPAN-1; experiment: Induction of cell cycle arrest in human Olaparib-resistant CAPAN-1 cells assessed as accumulation of cell at S phase at 0.5 to 1 uM incubated for 24 hrs by […] staining based flow cytometry analysis; type: functional; conditions: dose 0.5-1 µM
[22] = system: Olaparib-resistant CAPAN-1; experiment: Induction of apoptosis in human Olaparib-resistant CAPAN-1 cells assessed as early apoptotic cells at 0.1 uM incubated for 48 hrs by Annexin-V/PI staining based flow cytometry analysis (reference value: 8.50%); type: functional
CAPAN-1 [23] = experiment: Induction of DNA double strand breaks in human CAPAN-1 cells assessed as effect on RPA32 phosphorylation at 0.1 to 1 uM incubated for 24 hrs by DAPI staining based confocal microscopic analysis; type: functional, cell-based; conditions: dose 0.1-1 µM
[24] = system: Olaparib-resistant CAPAN-1; experiment: Induction of apoptosis in human Olaparib-resistant CAPAN-1 cells assessed as early apoptotic cells at 1 uM incubated for 48 hrs by Annexin-V/PI staining based flow cytometry analysis (reference value: 8.50%); type: functional
[25] = molecular target: Poly [ADP-ribose] polymerase 1 (Homo sapiens, UniProt P09874); experiment: Inhibition of PARP1 (unknown origin) incubated for 1 hr by ELISA analysis
CAPAN-1 [26] = experiment: Induction of DNA double strand breaks in human CAPAN-1 cells assessed as increase in gamma-H2AX level at 0.1 to 1 uM incubated for 24 hrs by Western blot analysis; type: functional, cell-based; conditions: dose 0.1-1 µM
CAPAN-1 [27] = experiment: Induction of apoptosis in human CAPAN-1 cells assessed as late apoptotic cells at 0.1 uM incubated for 48 hrs by Annexin-V/PI staining based flow cytometry analysis (reference value: 4.95%); type: functional
[28] = system: Olaparib-resistant CAPAN-1; experiment: Induction of DNA double strand breaks in human Olaparib-resistant CAPAN-1 cells assessed as effect on RPA32 phosphorylation at 0.1 to 1 uM incubated for 24 hrs by DAPI staining based confocal microscopic analysis; type: functional, cell-based; conditions: dose 0.1-1 µM
[29] = system: Olaparib-resistant CAPAN-1; experiment: Induction of DNA double strand breaks in human Olaparib-resistant CAPAN-1 cells assessed as gamma-H2AX foci formation at 0.1 to 1 uM incubated for 24 hrs by DAPI staining based confocal microscopic analysis; type: functional, cell-based; conditions: dose 0.1-1 µM
CAPAN-1 [30] = experiment: Induction of apoptosis in human CAPAN-1 cells assessed as early apoptotic cells at 0.1 uM incubated for 48 hrs by Annexin-V/PI staining based flow cytometry analysis (reference value: 10.1%); type: functional

Sequence of Poly [ADP-ribose] polymerase 1 (P09874 whole entry): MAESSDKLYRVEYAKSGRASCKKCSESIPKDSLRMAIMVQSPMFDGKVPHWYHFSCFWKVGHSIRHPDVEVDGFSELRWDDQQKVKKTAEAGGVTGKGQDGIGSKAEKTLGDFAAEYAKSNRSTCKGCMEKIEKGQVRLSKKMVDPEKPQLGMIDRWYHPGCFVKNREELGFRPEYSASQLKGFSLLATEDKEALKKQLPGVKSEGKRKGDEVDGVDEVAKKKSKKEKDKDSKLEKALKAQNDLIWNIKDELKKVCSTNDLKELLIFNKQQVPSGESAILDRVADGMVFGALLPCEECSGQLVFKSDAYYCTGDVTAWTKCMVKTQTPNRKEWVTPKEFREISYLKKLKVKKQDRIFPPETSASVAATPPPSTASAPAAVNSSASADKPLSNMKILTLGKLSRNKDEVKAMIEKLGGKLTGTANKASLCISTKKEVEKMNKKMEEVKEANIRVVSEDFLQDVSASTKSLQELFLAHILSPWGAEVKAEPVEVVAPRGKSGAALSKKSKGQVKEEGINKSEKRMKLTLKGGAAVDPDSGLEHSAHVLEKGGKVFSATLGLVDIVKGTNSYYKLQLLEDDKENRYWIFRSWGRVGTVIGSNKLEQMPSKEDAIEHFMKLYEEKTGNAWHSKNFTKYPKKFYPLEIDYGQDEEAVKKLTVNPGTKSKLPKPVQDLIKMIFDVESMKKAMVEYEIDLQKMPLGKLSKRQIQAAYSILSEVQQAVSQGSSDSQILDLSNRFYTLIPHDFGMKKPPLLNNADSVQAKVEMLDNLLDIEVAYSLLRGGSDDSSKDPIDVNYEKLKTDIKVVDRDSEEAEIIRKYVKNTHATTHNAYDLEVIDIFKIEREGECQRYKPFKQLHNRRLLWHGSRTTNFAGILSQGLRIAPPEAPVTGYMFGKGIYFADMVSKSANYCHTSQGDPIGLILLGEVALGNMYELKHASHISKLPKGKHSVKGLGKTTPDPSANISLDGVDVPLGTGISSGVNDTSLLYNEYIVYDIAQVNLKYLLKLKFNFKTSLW
Sequence of Voltage-gated inwardly rectifying potassium channel KCNH2 (Q12809 whole entry): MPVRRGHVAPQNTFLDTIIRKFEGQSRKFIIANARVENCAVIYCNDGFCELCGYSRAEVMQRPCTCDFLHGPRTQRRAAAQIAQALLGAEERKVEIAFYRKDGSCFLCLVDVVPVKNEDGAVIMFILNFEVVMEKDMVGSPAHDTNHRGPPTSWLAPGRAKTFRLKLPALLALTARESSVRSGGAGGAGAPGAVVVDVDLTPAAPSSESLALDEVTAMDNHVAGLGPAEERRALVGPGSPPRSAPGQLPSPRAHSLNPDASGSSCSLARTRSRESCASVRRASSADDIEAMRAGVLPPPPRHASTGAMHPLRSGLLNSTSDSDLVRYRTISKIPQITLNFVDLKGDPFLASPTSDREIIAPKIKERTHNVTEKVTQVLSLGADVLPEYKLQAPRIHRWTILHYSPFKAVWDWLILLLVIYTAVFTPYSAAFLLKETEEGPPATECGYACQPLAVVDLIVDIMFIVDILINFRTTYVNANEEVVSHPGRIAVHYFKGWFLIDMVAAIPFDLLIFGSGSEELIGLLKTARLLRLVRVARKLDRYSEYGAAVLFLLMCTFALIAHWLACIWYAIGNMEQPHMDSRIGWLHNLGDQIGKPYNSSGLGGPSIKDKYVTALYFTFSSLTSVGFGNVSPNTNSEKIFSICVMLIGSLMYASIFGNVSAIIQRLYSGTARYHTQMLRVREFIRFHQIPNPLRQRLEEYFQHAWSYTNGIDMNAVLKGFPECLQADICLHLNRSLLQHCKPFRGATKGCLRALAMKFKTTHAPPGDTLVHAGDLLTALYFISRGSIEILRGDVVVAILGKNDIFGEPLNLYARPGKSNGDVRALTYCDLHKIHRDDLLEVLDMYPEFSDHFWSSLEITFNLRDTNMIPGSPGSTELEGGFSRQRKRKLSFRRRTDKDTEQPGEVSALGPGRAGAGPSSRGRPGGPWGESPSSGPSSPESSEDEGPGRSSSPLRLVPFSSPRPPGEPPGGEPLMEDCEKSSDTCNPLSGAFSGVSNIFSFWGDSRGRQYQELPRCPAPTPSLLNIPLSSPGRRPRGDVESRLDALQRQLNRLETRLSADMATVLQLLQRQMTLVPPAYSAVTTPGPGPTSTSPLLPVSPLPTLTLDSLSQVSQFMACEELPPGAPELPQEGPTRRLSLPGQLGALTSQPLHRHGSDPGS

COc1cccc(-c2nnc3n2C(C)CN(C(=O)c2cc(Cc4n[nH]c(=O)c5ccccc45)ccc2F)C3)n1 (stereo unspecified)
IC50 [1]: < 0.3 nM
Activity (CAPAN-1 [2]): Active
Activity (CAPAN-1 [3]): Active
IC50 [4]: 0.3 nM
Activity [5]: 4.6%
Activity (CAPAN-1 [6]): 42%
Activity [7]: Active
Activity (CAPAN-1 [8]): Active
Activity (CAPAN-1 [9]): 40.7%
Activity (CAPAN-1 [10]): Active
Activity [11]: 30.7%
IC50 (CAPAN-1 [12]): < 0.3 nM
Activity (CAPAN-1 [13]): Active
Activity (CAPAN-1 [14]): Active
IC50 (MDA-MB-436): < 0.3 nM
IC50 [15]: 0.3 nM
Activity (CAPAN-1 [16]): 43.9%
Activity [17]: 39.1%
Activity (CAPAN-1 [18]): 41%
IC50 [19]: 17500 nM
Activity [20]: 29%
Activity [21]: Active
Activity [22]: 17.6%
Activity (CAPAN-1 [23]): Active
Activity [24]: 36.6%
IC50 [25]: 0.6 nM
Activity (CAPAN-1 [26]): Active
Activity (CAPAN-1 [27]): 17.7%
Activity [28]: Active
Activity [29]: Active
Activity (CAPAN-1 [30]): 37.9%
